The subject of one assay is Trichophyton rubrum. Put plainly: Antifungal activity against Trichophyton rubrum after 48 hrs. It is filed as functional.
Assay [1] has as its system Staphylococcus epidermidis. Briefly: Antibacterial activity against Staphylococcus epidermidis ATCC 12228 after 18 hrs. The assay is classed as functional. The following applies: ATCC 12228, 18 h.

The results in this text go back to ChEMBL document CHEMBL1151845, “Terpenoids from Toona ciliata” (2009).

In brackets after ≈: the same amount, converted by molar mass.

Broadly, the MIC is the least concentration at which growth counts as inhibited. Lower therefore signals greater potency. `C[C@@H]1[C@H](O)[C@@H](C)/C=C/C=C/C=C/C=C/C=C/C=C/C=C/[C@H](O[C@@H]2O[C@H](C)[C@@H](O)[C@H](N)[C@@H]2O)C[C@@H]2O[C@](O)(C[C@@H](O)C[C@@H](O)[C@H](O)CC[C@@H](O)C[C@@H](O)CC(=O)O[C@H]1C)C[C@H](O)[C@H]2C(=O)O` [AMPHOTERICIN B]: the MIC with Trichophyton rubrum came to 1.56 µg/mL (≈ 1.69 µM).

With `CC1COc2c(N3CCN(C)CC3)c(F)cc3c(=O)c(C(=O)O)cn1c23` (stereo not drawn) [OFLOXACIN], the lowest concentration to inhibit growth in assay [1] (MIC) was 0.39 µg/mL (≈ 1.08 µM).

`C=C[C@@]1(C)CC[C@H]2[C@@](O)(CC[C@@H]3[C@]2(C)CCC[C@]3(C)C(=O)O)C1` [TOONACILIATIN M]: in the assay on Trichophyton rubrum, the minimal inhibitory concentration (MIC) turned out to be 12.5 µg/mL (≈ 39 µM).
